In patent publication US12351819B2, “Method for removing undifferentiated pluripotent stem cells” (priority 2017, dated 2025):

Experiments:
[1] = system: hiPSC-derived endothelial cells; test: LDH cytotoxicity assay in hiPSC-derived endothelial cells; assay type: cell-based, human; settings: 2.5 μM, 24 hours
Method: The released LDH was measured using CytoTox 96 Non-Cytotoxicity assay according to the manufacture's instruction (Promega, Southampton, UK). The supernatants and reagents were incubated at room temperature for 20 minutes and then the reaction was stopped by Stop Solution. The absorbance at 490 nm was measured using a plate-reading spectrophotometer (Benchmark Plus Microplate Spectrophotometer System, BIO-RAD, CA, USA).

[2] = system: hESC-hepatocyte endoderm cells; test: LDH cytotoxicity assay in hESC-derived hepatocyte endoderm; assay type: cell-based, human; settings: Table 1
Method: This protocol followed a method previously published in Nature Protocols^36. The hESCs were detached by 0.5 mM EDTA (Life Technologies, Camarillo, C, USA), seeded on VTN-N coated culture plates (Corning) and maintained for 48 hours in mTeSR 1 medium. Then, the medium was refreshed daily for all following steps. On days 1-2, the medium was replaced with fresh CDM-PVA (consisting of 0.5 g of PVA (Sigma) dissolved in 250 ml of IMDM/F-12, GlutaMAX (Invitrogen), 250 ml of IMDM (Invitrogen), 5 ml of chemically defined lipid concentrate (Invitrogen), 20 of thioglycerol 97% (Sigma), 350 of insulin (10 mg/ml; Roche), 250 of transferrin (30 mg/ml; Roche) plus Activin A (100 ng/ml; R&D), bFGF (80 ng/ml; R&D), BMP4 (10 ng/ml; R&D), and […] of LY-294002 (Promega). On day 3, the cells were differentiated in RPMI Medium supplemented with Activin A (100 ng/ml) and bFGF (80 ng/ml). On days 4-6, the cells were expanded in RPMI medium supplemented with Activin A (50 ng/ml). On day 7, the cells were passaged and re-plated 105,000 cells/cm^2 cells in VTN-N coated culture plates in RPMI containing Activin A (50 ng/ml) and Y-27632 2HCl (10 μM Selleck-chem, Houston, TX, USA and Munich, Germany). Then, the cells were maintained in RPMI+Activin A (50 ng/ml) on days 8-11. The cells were differentiated into the hepatocyte endoderm and analyzed following the drug treatments. The expression of alpha-fetoprotein (A0008, Dako, Santa Clara, CA, USA) was analyzed in the hepatocyte endoderm via immunofluorescence staining.

HUES6 hESCs = test: Cell colony and morphology under bright field, HUES6; assay type: cell-based, human; settings: 2.5 μM, 12 hours and 24 hours
Source text: Cells became round and died. […] Data are shown as the mean SD.

hBMMSCs = test: Cell morphology under bright field, hBMMSCs; assay type: cell-based, human; settings: 2.5 μM, 12 hours and 24 hours
Source text: Scale bar: 500 μm. […] The samples were normalized to the DMSO-treated hESCs. ***P<0.001; **P<0.01; n.s. not significant. Data are shown as the mean SD.

[3] = system: cleaved PARP, caspase3, caspase7 in hESC-MSCs; test: Western blot of apoptotic markers, hESC-MSCs; assay type: cell-based, human; settings: 2.5 μM, 12 hours
Method: RIPA buffer was used to harvest cell lysates (RIPA buffer: NaCl 150 mM, Tris pH 8.0 50 mM, EDTApH 8.0 5 mM, NP-40 1.0%, SDS 0.5%, sodium deoxycholate 0.1%). Western blot analyses were performed as previously described with different types of primary antibodies^29. The primary antibody includes anti-β-actin (A5441; Sigma), anti-Oct4 (sc-9081; Santa Cruz Biotechnology, Santa Cruz, CA, USA), anti-Nanog (3580; Cell Signaling Technology, Danvers, MA, USA), apoptosis antibody kit (9915; Cell Signaling Technology), ATP1A1 (3010; Cell Signaling Technology), and ATP1A2 (16836-1-AP; Proteintech™) were used. After reaction at 4° C. overnight, the blots were incubated with goat anti-mouse- or goat anti-rabbit antibody conjugated with horseradish peroxidase (Jackson ImmunoResearch Inc). The chemiluminescent substrate (WBKLS0500; Millipore, Darmstadt, Germany) was used to detect the blots. Fujifilm LAS-4000 (FUJIFILM, Tokyo, Japan) was used to take the images.

[4] = system: mixture of hESCs and GFP-overexpressing hBMMSCs; test: Kidney capsule transplantation of treated hESCs and hBMMSCs; assay type: in vivo; settings: drug-treated hESCs and hBMMSCs under the kidney capsule, NSG mice, five weeks
Method: The 293T cells were seeded with 10^6 cells in 6-well plates for the generation of the lentivirus. After 24 hours, the 293T cells were transfected with 1 μg of pLKO_AS3w.eGFP.bsd, 0.9 μg of pCMVR8.91, and 0.1 μg of pMD.G (National RNAi Core Facility, Taipei, Taiwan) via the TurboFect transfection reagent (Thermo Fisher Scientific). At 24 hours after the transfection, the medium was refreshed with the virus harvest medium, which contained HG-DMEM, 10% FBS and 1% BSA. The hBMMSCs were seeded in 6-well plates and later incubated with the lentivirus (multiplicity of infection=10) for one day. The cells were selected with 10 μg/ml blasticidin (Thermo Fisher Scientific) the following day. The GFP overexpressing hBMMSCs were then isolated using a cell sorter (FACS Aria™ II, BD Biosciences) and cultured in a medium containing 10 μg/ml blasticidin for the following experiments.
Mixtures of approximately 8×10^5 hESCs and 8×10^5 hBMMSCs were injected under the kidney capsules into 6-week-old male NSG mice. Five weeks after the transplantation, the animals were sacrificed, and the tissues were removed, fixed in 10% formalin, embedded in paraffin, stained with H&E or were subjected to IHC staining. The staining protocols were described in the materials and method section. Chicken anti-GFP (ab 13970, Abcam, Cambridge, MA, USA) antibody was used for the GFP overexpressing hBMMSCs IHC staining.

Compound | survival of hiPSC-derived endothelial cells (LDH release) [1] | LDH assay positive, hepatocyte endoderm cells [2] | cell death (bright field morphology) in HUES6 (HUES6 hESCs) | survival of hBMMSCs (bright field morphology) (hBMMSCs) | cleaved form of apoptosis markers in hESC-MSCs [3] | tumor area of kidney tissue [4]
C[C@H]1O[C@@H](O[C@H]2[C@@H](O)C[C@H](O[C@H]3[C@@H](O)C[C@H](O[C@H]4CC[C@@]5(C)[C@H](CC[C@@H]6[C@@H]5C[C@@H](O)[C@]5(C)[C@@H](C7=CC(=O)OC7)CC[C@]65O)C4)O[C@@H]3C)O[C@@H]2C)C[C@H](O)[C@@H]1O [Digoxin, digoxin] | remained alive | −/+ (10% positive cells) | induced cell death | did not affect the survival | no cleaved form of the apoptosis markers was detected | significantly inhibited
CC(=O)O[C@H]1C[C@H](O[C@H]2[C@@H](O)C[C@H](O[C@H]3[C@@H](O)C[C@H](O[C@H]4CC[C@@]5(C)[C@H](CC[C@@H]6[C@@H]5C[C@@H](O)[C@]5(C)[C@@H](C7=CC(=O)OC7)CC[C@]65O)C4)O[C@@H]3C)O[C@@H]2C)O[C@H](C)[C@H]1O[C@@H]1O[C@H](CO)[C@@H](O)[C@H](O)[C@H]1O [Lanatoside C, lanatoside C] | remained alive | −/+ (10% positive cells) | induced cell death | did not affect the survival | no cleaved form of the apoptosis markers was detected | significantly inhibited
